As usually defined, the inhibition is how much of the control response was suppressed.

This note sets out measurements from patent publication US20170246144A1, “METHOD OF PREVENTING OR TREATING SPINOCEREBELLAR ATAXIA BY ADMINISTRATING SILIBININ” (National Taiwan Normal University, priority 2016, published 2017).

One test relates to SH-SY5Y cells. The test can be described thus: Western blotting of Bax and Bcl-2 after MSG. It is filed as cell-based, Human. The settings on record: 15 μM, 100 mM MSG, 6 hours. The protocol:
The levels of Bax and Bcl-2 in 1×10^6 SH-SY5Y cells were measured by western blotting, wherein the control group (Ctrl) was untreated SH-SY5Y cells or the cells were treated with 100 mM MSG, 100 mM MSG+15 μM SB or 100 mM MSG+10 μM MK801 (MK) for 6 hours. Actin was used as a loading control.
In present embodiment, western blotting was performed to study whether silibinin protects SH-SY5Y cell from apoptosis due to glutamatergic excitotoxicity via mitochondria-dependent apoptosis pathway.
It is known that the reduction of Bcl-2 level and the increases of Bax level are related to the increases of free calcium ion in cytosol. Bcl-2 is a cell-survival protein and Bax is a pro-apoptotic protein and they both mediate the releases of cytochrome C from mitochondria. Therefore, Bcl-2 and Bax are used as indicators in the present embodiment.
On the technique in general: Immunoblotting shows a protein as a band on a membrane.

The subject of the next test is nTBP/Q79-EGFP cells. The test can be described thus: Western blotting of caspase family proteins in Dox-induced nTBP/Q79-EGFP cells. It is filed as cell-based. The note with it: Homo sapiens, 120 h, Dox 5 days. The protocol:
FIGS. 8A-8C show the effects of SB on improving the viability of nTBP/Q79-EGFP cells and inhibiting the expression levels of cleaved caspase-9, cleaved caspase-3, and cleaved PARP in nTBP/Q79-EGFP cells induced by doxycycline (Dox). FIG. 8A: The viabilities of 1.0×10^6 nTBP/Q36-EGFP cells and nTBP/Q79-EGFP cells which were pretreated with 15 μM SB for 1 hour followed by the induction of Dox for 1, 3, and 5 days were measured by MTT assay. FIG. 8B: 1.0×10^6 nTBP/Q36-EGFP cells and nTBP/Q79-EGFP cells were pretreated with 15 μM SB for 1 hour followed by the induction of Dox for 5 days. The levels of cleaved caspase-9, cleaved caspase-3, and cleaved PARP were detected by western blotting. Actin was used as a loading control. […] The results were shown as mean±SD, n=3, *p<0.05, comparing to the Dox group.
Western blotting was used to determine whether silibinin can inhibit cell death due to the expression of nTBP/Q79-EGFP via caspase-dependent apoptosis pathway.
nTBP/Q36-EGFP cells and nTBP/Q79-EGFP cells were treated with 15 μM silibinin for 1 hour followed by the treatment of 10 μg/mL Dox and RA for 5 days.

The test system of a further test is SCA17 transgenic mice. The test can be described thus: Western blotting of TBP/polyQ aggregation and cleaved caspase 3 in cerebellum of SCA17 mice. It counts as in vivo. The note with it: 4.5 mg/kg i.p. once every 2 days, 20 weeks old. The protocol: FIGS. 11A and 11B show the effects of SB on the levels of TBP (N12) and cleaved caspase-3 in SCA17 transgenic mice. Mice were grouped into wild type-saline (WT-saline), transgenic-saline (TG-saline), and transgenic-SB treatment (TG-SB) groups. Mice were injected intraperitoneally with saline or SB (4.5 mg/kg) at 8-week old once every 2 days. FIG. 11A: The extent of TBP aggregation (detected with TBP (N12) antibody) and the levels of cleaved caspase-3 in the cerebella of mice were measured by western blotting at 20-week old. Actin was used as a loading control. […] The results were shown as mean±SEM, n=6, *p<0.05, comparing to the TG-saline group.
Since the SCA17 mice were 8 weeks old, the mice were injected intraperitoneally with silibinin in saline at 4.5 mg/kg once every 2 days, designated as TG_SB group. The mice in TG_saline group were injected with same amount of saline.
In order to understand whether silibinin can reduce TBP/polyQ protein aggregation and the expression of cleaved-caspase 3 in the cerebellum of SCA17 mouse, TBP/polyQ protein aggregation and the expression of cleaved-caspase 3 in the cerebellum of SCA17 mouse were measured. […]

Read-outs that look alike come from different tables or passages of the source.

On to `COc1cc(C2Oc3cc([C@H]4Oc5cc(O)cc(O)c5C(=O)[C@@H]4O)ccc3OC2CO)ccc1O` (stereo partly shown) [silibinin], for which the “increase of Bcl-2 level, compared to MSG only” value in the test on SH-SY5Y cells was “approximately 167%”. For the same compound, in the test on SH-SY5Y cells, the “reduction of Bax level, compared to MSG only” value worked out at 80%. The results for the inhibition at 15 µM in the test on nTBP/Q79-EGFP cells (read-out: inhibition of cleaved-PARP level), with nTBP/Q79-EGFP cells (read-out: inhibition of cleaved-caspase-3 level) and with nTBP/Q79-EGFP cells (read-out: inhibition of cleaved-caspase-9 level) were ~44%, ~100% and ~88%, respectively. The “inhibition of TBP/polyQ protein aggregation in cerebellum” value in the test on SCA17 transgenic mice was found to be 100%. For the same compound, the “inhibition of cleaved caspase 3 protein level in cerebellum” value in the test with SCA17 transgenic mice amounted to 25%.
